Earlier results, collected in patent US20160066563A1, “COMPOSITIONS AND METHODS FOR COLLECTING, WASHING, CRYOPRESERVING, RECOVERING AND RETURN OF LIPOASPIRATES TO PHYSICIAN FOR AUTOLOGOUS ADIPOSE TRANSFER PROCEDURES” (priority 2012, published 2016).

Test system: cells
Conditions: at room temperature or body temperature

| Structure (SMILES) | toxicity to cells |
| --- | --- |
| C[S+](C)[O-] [DMSO, dimethylsulfoxide] | toxic to cells |
| OCC(O)CO [glycerol] | not toxic |
